Reference: article PMC10221159, “Investigation of N-Acetyltransferase 2-Mediated Drug Interactions of Amifampridine: In Vitro and In Vivo Evidence of Drug Interactions with Acetaminophen” (Pharmaceutics, 2023)
Where two headings read alike, the source gives them in different places.

Legend:
[1] = In vivo pharmacokinetic interaction study in rats (plasma); design: species or system rat; conditions: for AUC(0-inf) / AUC(0-t) / Cmax / MRT / Tmax / half-life / CL renal: male, Sprague-Dawley, rat, po, 2 mg/kg, oral amifampridine 2 mg/kg; for AUC(0-inf) / AUC(0-t) / Cmax / MRT / Tmax / half-life: plasma; for CL renal: urine and plasma, renal clearance
Description: Male Sprague Dawley (SD) rats (7–8 weeks old, 260–330 g) were purchased from Orient Bio, Inc. (Seongnam, Korea). The rats were housed under a light/dark cycle for 12 h and were left for at least a week before the experiment to adapt to the laboratory environment. Water and food were provided ad libitum. The rats were fasted overnight with free access to water prior to pharmacokinetic studies. The protocols for animal experiments were approved in accordance with the Guidelines for Animal Care and Use of Gachon University (approval no.: GIACUC-R2021006; 13 May 2021).
The rats were anesthetized with a mixture of Rompun and Zoletil by intramuscular injection and received an intraperitoneal injection of vehicle (40:60 PEG400:normal saline; n = 8) or 100 mg/kg acetaminophen (n = 8). After 10 min, 2 mg/kg amifampridine (dissolved in saline) was administered orally. Blood samples were collected at 0, 5, 15, 30, 60, 90, 120, 240, and 360 min and centrifuged at 14,000 rpm for 15 min at 4 °C. For analysis of amifampridine and 3-N-acetylamifampridine, 50 μL of plasma samples was mixed with 100 μL IS solution (5 ng/mL ondansetron in acetonitrile) and the mixture was vortexed followed by centrifugation at 14,000 rpm for 15 min at 4 °C. For the analysis of acetaminophen, 200 μL of IS (tolbutamide 200 ng/mL in methanol) was added to the plasma samples which were diluted 10-fold using the blank plasma and then vortexed for one minute. Further, the samples were centrifuged at 14,000 rpm for 15 min at 4 °C. The supernatants were transferred to LC vials for quantification.
Non-compartment analysis (NCA) was performed to calculate the pharmacokinetic parameters for the in vivo study using WinNonlin (Version 8.3. (Pharsight Corporation, Mountain View, CA, USA)). The area under the plasma concentration–time curve from time 0 to infinity (AUCinf) was calculated by the linear trapezoidal method and standard extrapolation using λ, where λ represents the slope of the terminal phase in a semi-log graph for plasma concentration–time profiles. Renal clearance (CLr) was determined by dividing the accumulated amount of drug excreted in the urine by AUCinf.

[2] = Urinary excretion of amifampridine and 3-N-acetylamifampridine in rats; assay type: in vivo, rat; conditions: for amount excreted into the urine for up to 4 h: oral amifampridine 2 mg/kg
Description: Urine samples were collected at intervals of 0–4, 4–8, and 8–24 h after the administration of amifampridine to control and acetaminophen-treated rats (n = 6), as described above, and were diluted 500-fold with potassium phosphate buffer. An amount of 200 μL of IS was then added to the samples and vortexed for a minute. After centrifugation at 14,000 rpm for 15 min at 4 °C, the supernatant was transferred into vials for quantification of amifampridine and 3-N-acetylamifampridine.

[3] = Tissue distribution of amifampridine and 3-N-acetylamifampridine in rats; assay type: in vivo, rat; conditions: rat, 60 min after oral amifampridine 2 mg/kg
Description: To investigate the effects of acetaminophen on the tissue distribution of amifampridine and 3-N-acetylamifampridine, rats were sacrificed at 60 min after administration of amifampridine in control and acetaminophen-treated rats (n = 6) as mentioned above, and the tissues, including liver, kidney, heart, lungs, spleen, brain, and muscle tissues, were obtained. Tissue samples were homogenized using a Wheaton^TM Dounce tissue grinder (Wheaton Millipore, Billerica, MA, USA) after adding a three-fold volume of PBS. An amount of 100 μL of tissue homogenates was transferred to the tube and 200 μL of IS solution was then added and vortexed followed by centrifugation at 14,000 rpm for 15 min at 4 °C. The supernatants were transferred to LC vials for quantification. For muscle samples, the supernatant was concentrated using a desiccator and reconstituted with the mobile phase solvent.

[4] = humans, cited from earlier work
[5] = design: method as in earlier work; conditions: metabolite of amifampridine; cited from earlier work
NAT2 [6] = target: T1, NAT2 (Homo sapiens, UniProt P11245); test: Inhibition of amifampridine acetylation to 3-N-acetylamifampridine by NAT2 inhibitors, human liver S9 fraction; assay type: biochemical; conditions: amifampridine 50 μM, 15 min
T1 construct: in vitro using S9 fractions obtained from human, rat, and mouse livers; from tissue; host or cells: human liver S9 fraction
T1 sequence (P11245 1-290): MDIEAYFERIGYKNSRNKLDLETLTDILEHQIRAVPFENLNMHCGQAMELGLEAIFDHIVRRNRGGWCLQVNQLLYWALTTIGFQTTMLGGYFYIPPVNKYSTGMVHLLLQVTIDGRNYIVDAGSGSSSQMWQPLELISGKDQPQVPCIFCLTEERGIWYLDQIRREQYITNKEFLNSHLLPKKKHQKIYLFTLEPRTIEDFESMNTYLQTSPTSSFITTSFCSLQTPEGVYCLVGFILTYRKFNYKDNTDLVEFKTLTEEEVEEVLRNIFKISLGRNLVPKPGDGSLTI
Description: Then, the NAT2 inhibitors (final concentrations of 0, 1, 5, 10, 50, 100, 500, 1000, and 5000 μM) and amifampridine (final concentration of 50 μM) were added to the reaction mixture and incubated for 15 min at 37 °C. An amount of 50 μL of the mixture was then transferred into the tube and mixed with 100 μL of IS (5 ng/mL ondansetron in acetonitrile). The mixture was vortexed and centrifuged at 14,000 rpm for 15 min at 4 °C. The supernatant was transferred into vials for HPLC-MS/MS analysis and the concentration of 3-N-acetylamifampridine was determined.

NAT2 [7] = conditions: previous report; cited from earlier work
[8] = acetaminophen-treated group (100 mg/kg ip)

For `CC(=O)Nc1cnccc1N` [3-N-acetylamifampridine], the “change of AUCinf after pre-treatment with acetaminophen” value ([1]; acetaminophen-treated vs control rats) was “not significantly altered”, the “decrease in Cmax” value ([1]; after pre-treatment with acetaminophen vs control, p < 0.05) was 27.11% and the “decrease of AUCm/AUCp” value ([1]; after pretreatment with acetaminophen) was 65%. For the same compound, the AUC(0-inf) [1, 8] was 3690 ng·h/mL, the AUC(0-t) [1, 8] was 3010 ng·h/mL and the Cmax [1, 8] was 880 ± 260 ng/mL. It also gave an MRT [1, 8] of 3.84 h, a Tmax [1, 8] of 1.5 h and a half-life [1, 8] of 2.38 ± 0.91 h. It also gave an AUC(0-inf) ([1]; control group) of 3690 ng·h/mL, an AUC(0-t) ([1]; control group) of 3410 ng·h/mL and a Cmax ([1]; control group) of 1210 ± 240 ng/mL. For the same compound, the MRT ([1]; control group) was 2.65 h, the Tmax ([1]; control group) was 1.31 h and the half-life ([1]; control group) was 1.42 ± 0.36 h. For the same compound, the CL renal [1, 8] was 3.58 ± 0.6 mL/min, the CL renal ([1]; control group) was 2.94 ± 1.55 mL/min and the “total amount excreted via urine for up to 24 h, difference between groups” value ([2]; control vs acetaminophen-treated rats) was “not significantly different”. The “amount excreted into the urine for up to 4 h” value ([2]; after pre-treatment with acetaminophen) was 12.2%, the “amount excreted into the urine for up to 4 h” value ([2]; control rats) was 49.9% and the Kp at 1 h ([3]; Sprague Dawley, brain, acetaminophen 100 mg/kg, read-out: Tissue partition coefficient (Kp), Brain) was 0.2 ± 0.2. The Kp at 1 h ([3]; Sprague Dawley, brain, control, read-out: Tissue partition coefficient (Kp), Brain) was 0.2 ± 0.2, the Kp at 1 h ([3]; Sprague Dawley, heart, acetaminophen 100 mg/kg, read-out: Tissue partition coefficient (Kp), Heart) was 1.6 ± 0.4 and the Kp at 1 h ([3]; Sprague Dawley, heart, control, read-out: Tissue partition coefficient (Kp), Heart) was 1.8 ± 0.5. For the same compound, the Kp at 1 h ([3]; Sprague Dawley, lungs, acetaminophen 100 mg/kg, read-out: Tissue partition coefficient (Kp), Lungs) was 2.7 ± 0.9, the Kp at 1 h ([3]; Sprague Dawley, lungs, control, read-out: Tissue partition coefficient (Kp), Lungs) was 2.9 ± 0.5 and the Kp at 1 h ([3]; Sprague Dawley, spleen, acetaminophen 100 mg/kg, read-out: Tissue partition coefficient (Kp), Spleen) was 3 ± 0.9. The Kp at 1 h ([3]; Sprague Dawley, spleen, control, read-out: Tissue partition coefficient (Kp), Spleen) was 3.3 ± 0.7, the Kp at 1 h ([3]; male, Sprague-Dawley, kidney, acetaminophen 100 mg/kg, read-out: Tissue partition coefficient (Kp), Kidney) was 5.1 ± 1.6 and the Kp at 1 h ([3]; male, Sprague-Dawley, kidney, control, read-out: Tissue partition coefficient (Kp), Kidney) was 16.6 ± 12.4. It also gave a Kp at 1 h ([3]; male, Sprague-Dawley, liver, acetaminophen 100 mg/kg, read-out: Tissue partition coefficient (Kp), Liver) of 3 ± 0.8, a Kp at 1 h ([3]; male, Sprague-Dawley, liver, control, read-out: Tissue partition coefficient (Kp), Liver) of 6.5 ± 5 and a Kp at 1 h ([3]; male, Sprague-Dawley, muscle, acetaminophen 100 mg/kg, read-out: Tissue partition coefficient (Kp), Muscle) of 0.9 ± 0.3. For the same compound, the Kp at 1 h ([3]; male, Sprague-Dawley, muscle, control, read-out: Tissue partition coefficient (Kp), Muscle) was 0.9 ± 0.2, the “dose excreted via the urine within 24 h” value ([4]; after administration of amifampridine) was 74.0–81.7% and the elimination half-life [4] was roughly 4 h. The pharmacological activity [5] was “pharmacologically inactive”.

In the case of `COc1cc(C(C)=O)ccc1O` [apocynin], the IC50 (NAT2 [6]) is given as 844 ± 160 µM and the IC50 (NAT2 [7]) is given as 690 µM.

For `CN/C(=N/CCSCc1nc[nH]c1C)NC#N` [cimetidine], the IC50 (NAT2 [6]) is listed as 2450 ± 258 µM and the IC50 (NAT2 [7]) is listed as 2060 µM.
